Results reported in the NIST ThermoML archive (doi:10.1016/j.jct.2013.10.005).
Numbers after ± are expanded uncertainties.

Conditions: 298 K; 101.33 kPa; Crystal; X-ray diffraction

mass density: 1969 ± 10 kg/m3
Compound: O.O.O.O.O=C([O-])[C@H](O)[C@@H](O)[C@H](O)[C@H](O)CO.O=C([O-])[C@H](O)[C@@H](O)[C@H](O)[C@H](O)CO.[Ba+2] [barium D-gluconate tetrahydrate]
